Experimental data as given in ChEMBL document CHEMBL6071200, “Discovery of Ring-Annulated Analogues of Cannabidiol as Potential Anticancer Agents: Synthesis and Biological Evaluation” (ACS Med Chem Lett, 2024).
Active and inactive are the calls of the source. The calls are words filed in the database; no cut-off is given here.

Key:
[1] = tested on: A549; assay: Anticancer activity against human A549 cells; format: functional, cell-based
[2] = tested on: MCF7; assay: Anticancer activity against human MCF7 cells; format: functional, cell-based
[3] = tested on: MCF7; assay: Inhibition of colony formation in human MCF7 cells assessed as reduction in number of colonies at subtoxic doses measured after 48 hrs by crystal violet staining based analysis; format: functional, cell-based
[4] = tested on: T47D; assay: Anticancer activity against human T47D cells; format: functional, cell-based
[5] = tested on: MCF7; assay: Cell cycle arrest in human MCF7 cells assessed as accumulation of cells at S phase at 14.65 uM incubated for 24 hrs by PI staining based flow cytometric analysis (reference value: 22.93 %); format: functional
[6] = Anticancer activity against mouse Thymocyte; format: toxicity, cell-based; conditions: thymocytes
[7] = tested on: MCF7; assay: Induction of mitochondrial membrane loss in human MCF7 cells assessed as fold change at 14.6 uM incubated for 24 hrs by Mitotracker dye based flow cytometric analysis relative to control; format: functional
[8] = tested on: MCF7; assay: Induction of apoptosis in human MCF7 cells assessed as early apoptotic cells at 14.65 uM incubated for 24 hrs by Annexin V-FITC/PI staining based flow cytometric analysis (reference value: 2.93 %); format: functional
[9] = tested on: MCF7; assay: Anticancer activity against human MCF7 cells assessed as reduction in cell viability at 14.65 uM preincubated with GW9662 for 1 hrs followed by compound addition and measured after 48 hrs by SRB assay; format: functional, cell-based
[10] = tested on: SF-126; assay: Anticancer activity against human SF-126 cells; format: functional, cell-based
[11] = Metabolic stability in human liver microsomes assessed as parent compound remaining measured after 30 mins; format: ADME, Microsome; conditions: read-out: Stability
[12] = tested on: MCF7; assay: Induction of apoptosis in human MCF7 cells assessed as viable cells at 14.65 uM incubated for 24 hrs by Annexin V-FITC/PI staining based flow cytometric analysis (reference value: 88.20 %); format: functional; conditions: read-out: Activity
[13] = tested on: MCF7; assay: Cytotoxicity against human MCF7 cells assessed as inhibition of cell growth at 20 uM incubated for 48 hrs by SRB assay relative to control; format: functional
[14] = tested on: T98; assay: Anticancer activity against human T98 cells; format: functional, cell-based
[15] = tested on: CCRF-CEM; assay: Anticancer activity against human CEM cells; format: functional, cell-based
[16] = tested on: HCT-116; assay: Cytotoxicity against human HCT-116 cells assessed as inhibition of cell growth incubated for 48 hrs by SRB assay; format: functional, cell-based; conditions: HCT-116, 48 h
[17] = tested on: MCF7; assay: Anticancer activity against human MCF7 cells assessed as reduction in cell viability at 14.65 uM preincubated with SR144528 for 1 hrs followed by compound addition and measured after 48 hrs by SRB assay; format: functional, cell-based
[18] = tested on: MCF7; assay: Cell cycle arrest in human MCF7 cells assessed as accumulation of cells at G2/M phase at 14.65 uM incubated for 24 hrs by PI staining based flow cytometric analysis (reference value: 13.7 %); format: functional
[19] = tested on: MCF7; assay: Anticancer activity against human MCF7 cells assessed as reduction in cell viability at 14.65 uM preincubated with LY320135 for 1 hrs followed by compound addition and measured after 48 hrs by SRB assay; format: functional, cell-based
[20] = Anticancer activity against mouse GL261 cells; format: functional, cell-based
[21] = tested on: MCF7; assay: Induction of apoptosis in human MCF7 cells assessed as late apoptotic cells at 14.65 uM incubated for 24 hrs by Annexin V-FITC/PI staining based flow cytometric analysis (reference value: 4.85 %); format: functional
[22] = tested on: DU-145; assay: Anticancer activity against human DU-145 cells; format: functional, cell-based
[23] = tested on: Caco-2; assay: Anticancer activity against human Caco-2 cells; format: functional, cell-based
[24] = tested on: MCF7; assay: Induction of ROS production in human MCF7 cells assessed as DCFDA intensity at 14.6 uM incubated for 24 hrs by flow cytometric analysis (reference value: 0.95 %); format: functional
[25] = Cytotoxicity against human HEK293 cells assessed as inhibition of cell growth incubated for 48 hrs by SRB assay; format: toxicity, cell-based
[26] = Selectivity index, ratio of IC50 for HEK293 cells to IC50 for human HCT-116 cells; format: toxicity; conditions: HEK293 cells versus HCT-116 cells, read-out: Ratio IC50
[27] = tested on: MCF7; assay: Anticancer activity against human MCF7 cells assessed as reduction in cell viability at 14.65 uM preincubated with ML-193 for 1 hrs followed by compound addition and measured after 48 hrs by SRB assay; format: functional, cell-based
[28] = tested on: MCF7; assay: Anticancer activity against human MCF7 cells assessed as reduction in cell viability at 14.65 uM preincubated with capsazepine for 1 hrs followed by compound addition and measured after 48 hrs by SRB assay; format: functional, cell-based
[29] = tested on: LNCaP; assay: Anticancer activity against human LNCaP cells; format: functional, cell-based
[30] = tested on: MCF7; assay: Cell cycle arrest in human MCF7 cells assessed as accumulation of cells at G1 phase at 14.65 uM incubated for 24 hrs by PI staining based flow cytometric analysis (reference value: 63.9 %); format: functional
[31] = tested on: AGS; assay: Anticancer activity against human AGS cells; format: functional, cell-based
[32] = tested on: RBL-2H3; assay: Anticancer activity against rat RBL-2H3 cells; format: functional, cell-based
[33] = Selectivity index, ratio of IC50 for HEK293 cells to IC50 for human MCF7 cells; format: toxicity; conditions: HEK293 cells versus MCF7 cells, read-out: Ratio IC50
[34] = tested on: MCF7; assay: Induction of apoptosis in human MCF7 cells assessed as necrotic cells at 14.65 uM incubated for 24 hrs by Annexin V-FITC/PI staining based flow cytometric analysis (reference value: 4.02 %); format: functional
[35] = tested on: EL4; assay: Anticancer activity against mouse EL4 cells; format: functional, cell-based
[36] = tested on: NCI-H460; assay: Anticancer activity against human NCI-H460 cells; format: functional, cell-based
[37] = tested on: MDA-MB-231; assay: Anticancer activity against human MDA-MB-231 cells; format: functional, cell-based
[38] = tested on: HCT-116; assay: Cytotoxicity against human HCT-116 cells assessed as inhibition of cell growth at 20 uM incubated for 48 hrs by SRB assay relative to control; format: functional
[39] = tested on: MCF7; assay: Anticancer activity against human MCF7 cells assessed as reduction in cell viability at 14.65 uM incubated for 48 hrs by SRB assay relative to control; format: functional
[40] = Anticancer activity against KiMol cells (unknown origin); format: functional, cell-based; conditions: KiMol cell
[41] = biological target: CYP450 (Homo sapiens, UniProt P04798+P05177+P05181+P08684+P10632+P10635+P11509+P11712+P13584+P20813+P20815+P20853+P24462+P24903+P33260+P33261+P51589+P78329+P98187+Q02928+Q08477+Q16678+Q16696+Q5TCH4+Q6VVX0+Q7Z449+Q8TAV3+Q96SQ9+Q9HB55); assay: Inhibition of CYP450 in human liver microsomes at <1 uM by cocktail-mixture based assay relative to control; format: ADME, Microsome; design: dose or concentration left out as unconfirmed; conditions: probe cocktail mixture
[42] = tested on: SW480; assay: Anticancer activity against human SW480 cells; format: functional, cell-based
[43] = tested on: MCF7; assay: Cytotoxicity against human MCF7 cells assessed as inhibition of cell growth incubated for 48 hrs by SRB assay; format: functional, cell-based; conditions: MCF7, 48 h
[44] = tested on: HL-60; assay: Anticancer activity against human HL-60 cells; format: functional, cell-based
[45] = Anticancer activity against human MZC cells; format: functional, cell-based
[46] = tested on: C6; assay: Anticancer activity against rat C6 cells; format: functional, cell-based

C=C(C)[C@@H]1CCC(C)=C[C@H]1c1c(O)cc(CCCCC)cc1O [CANNABIDIOL]
IC50 [1]: 2.8 µM
IC50 [2]: 1.3 µM
inhibition [3]: Active
IC50 [4]: 1.3 µM
Activity [5]: 6.84%
IC50 [6]: 7.01 µM
fold change (FC) [7]: 3.4
Activity [8]: 6.33%
Activity [9]: Active
IC50 [10]: 1.2 µM
remaining at 0.5 h [11]: 17%
viability at 14.65 µM [12]: 81.1%
inhibition at 20 µM [13]: 59.1%
IC50 [14]: 1.2 µM
IC50 [15]: 6.3 µM
IC50 [16]: 9.8 µM
Activity [17]: Active
Activity [18]: 18.04%
Activity [19]: Active
IC50 [20]: 1.2 µM
Activity [21]: 10.14%
IC50 [22]: 5.06 µM
IC50 [23]: 5.95 µM
Activity [24]: 15.11%
IC50 at 48 h [25]: 95.2 µM
selectivity ratio [26]: 9.7
Activity [27]: Active
Activity [28]: Active
IC50 [29]: 5.06 µM
Activity [30]: 75.12%
IC50 [31]: 7.5 µM
IC50 [32]: 6.3 µM
selectivity ratio [33]: 6.5
Activity [34]: 2.38%
IC50 [35]: 7.01 µM
IC50 [36]: 2.8 µM
IC50 [37]: 1.3 µM
inhibition at 20 µM [38]: 77.3%
Activity [39]: 52.46%
IC50 [40]: 6 µM
inhibition [41]: > 50%
IC50 [42]: 5.95 µM
IC50 [43]: 14.6 µM
IC50 [44]: 6.3 µM
IC50 [45]: 1.2 µM
IC50 [46]: 1.2 µM
